Read-outs that look alike come from different tables or passages of the source.
How the values were obtained:
Assay type in all cases: cell-based
[1] = test system: Penicillium islandicum; assay: Wood preservative efficacy against fungi, agar plate colony diameter; design: key: 1 = 25%, 2 = 50%, 3 = 75%, 4 = 100% of untreated fungal growth
Experimental: (§1) The compounds shown in Table 1 were dissolved in 50% ethanol and then diluted with sterile water to give the required concentrations of 1 and 10 ppm in the test agar plates. Malt extract sugar (3%) was added aseptically and uniform distribution was obtained by shaking. Each plate was inoculated with a spore suspension or with a small piece of agar (1 mm) from the margin of an actively growing colony of the test fungus. The fungi employed are listed below. After incubation at 22° C. and 70% relative humidity during a period long enough to allow significant growth of untreated controls, the diameters of the fungus colonies were measured and scored using the following rating system:
(§2) 1=25% of fungal growth compared to untreated
(§3) 2=50% of fungal growth compared to untreated
(§4) 3=75% of fungal growth compared to untreated
(§5) 4=Growth equal to that of untreated
(§6) In these Tables, the lower numbers are the most preferred species.

[2] = test system: Aureobasidium pullulans; assay: as above; design: key: 1=25%, 2=50%, 3=75%, 4=100% of untreated growth; lower better
Experimental: as §1, §2, §3, §4, §5, §6

[3] = test system: Coniophora puteana; assay: as above; design: key: 0 = no fungal growth, 1-3 = 25/50/75% of untreated, 4 = equal
Experimental: (§7) Each plate was inoculated with a spore suspension or with a small piece of agar (1 mm) from the margin of an actively growing colony of the test fungus. The fungi employed are listed below. After incubation at 22° C. and 70% relative humidity during a period long enough to allow significant growth of untreated controls, the diameters of the fungus colonies were measured and scored using the following rating system: 0=free of fungal growth 1=25% of fungal growth compared to untreated 2=50% of fungal growth compared to untreated 3=75% of fungal growth compared to untreated 4=Growth equal to that of untreated The scores measured for wood preservation efficacy of the compounds of this invention are listed in Tables 6a and 6b. In these Tables, the lower numbers are the most preferred species. Coniophora puteana (syn. C. cerebella)

[4] = test system: Flavobacterium sp.; assay: Wood preservative efficacy against bacteria and yeasts, tryptose agar plates; design: key: 0 = growth equal to control, 1 = growth inhibited, 2 = no growth
Experimental: (§8) Compositions were prepared by dissolving the compounds shown in Table 1 in 50% ethanol and further diluting with sterile distilled water. […] After cooling, the medium was inoculated with the bacteria listed below. After sufficient growth of the untreated cultures, the compounds were evaluated using the following rating system: 0=growth equal to control 1=inhibition of growth by the compound 2=no growth under the influence of the compound. In this Table, the higher numbers are the most preferred species. Flavobacterium sp. (gram neg)

[5] = test system: Bacillus cereus mycoides; design: scale not given here
[6] = test system: Trichoderma viride; assay: Wood preservative efficacy against fungi, agar plate colony diameter
Experimental: as §7, with “Trichoderma viride” for “Coniophora puteana (syn. C. cerebella)”

[7] = test system: Pseudomonas alcaligenes; assay: Wood preservative efficacy against bacteria and yeasts, tryptose agar plates; design: key: 0 = growth equal to control, 1 = inhibition, 2 = no growth; conditions: 100 ppm in tryptose agar
Experimental: as §8, with “Pseudomonas alcaligenes” for “Flavobacterium sp.”

[8] = test system: Cladosporium resinae; assay: Wood preservative efficacy against fungi, agar plate colony diameter
Experimental: as §7, with “Cladosporium resinae (syn Hormonocanis resinae, Amorphotheca resinae)” for “Coniophora puteana (syn. C. cerebella)”

[9] = test system: Aspergillus flavus; assay: as above
Experimental: as §7, with “Aspergillus flavus” for “Coniophora puteana (syn. C. cerebella)”

[10] = test system: Mucor sp.; assay: as above
Experimental: as §7, with “Mucor sp.” for “Coniophora puteana (syn. C. cerebella)”

SMILES | Score of fungicidal activity, P. ISLANDICUM ([1]; Test dosage 10 ppm, Table 6A) | Score of fungicidal activity, A. PULLULANS ([2]; Test dosage 10 ppm, Table 6A) | Score of fungicidal activity, C. PUTEANA ([3]; Test dosage 10 ppm, Table 6A) | Score of bactericidal activity, Flavobacter ([4]; 100 ppm in tryptose agar) | Score of bactericidal activity, B. cereus mycoides ([5]; 10 ppm in tryptose agar) | Score of bactericidal activity, B. cereus mycoides ([5]; 100 ppm in tryptose agar) | Score of fungicidal activity, T. VIRIDE ([6]; Test dosage 10 ppm, Table 6A) | Score of bactericidal activity, P. alcalgenes [7] | Score of fungicidal activity, CL RESINAE ([8]; Test dosage 10 ppm, Table 6A) | Score of fungicidal activity, A. FLAVUS ([9]; Test dosage 10 ppm, Table 6A) | Score of fungicidal activity, P. ISLANDICUM ([1]; 10 ppm, Table 6B) | Score of fungicidal activity, A. PULLULANS ([2]; 10 ppm, Table 6B) | Score of fungicidal activity, C. PUTEANA ([3]; 10 ppm, Table 6B) | Score of bactericidal activity, Flavobacter ([4]; 10 ppm in tryptose agar) | Score of fungicidal activity, T. VIRIDE ([6]; 10 ppm, Table 6B) | Score of fungicidal activity, CL RESINAE ([8]; 10 ppm, Table 6B) | Score of fungicidal activity, MUCOR SP ([10]; 100 ppm, Table 6B) | Score of fungicidal activity, A. FLAVUS ([9]; 10 ppm, Table 6B) | also measured
C[S+]1CCON=C1c1ccc(Cl)cc1 (centres unmarked) [Compound 1] | 0 | 3 (75% of growth compared to untreated control) | 2 (50% of growth compared to untreated control) | 2 | 2 | 2 | 2 (50% of growth compared to untreated control) | 1 | 2 (50% of growth compared to untreated control) | 0 | – | – | – | – | – | – | – | – | –
[O-][S+]1CCON=C1c1ccc(Cl)c(Cl)c1 (centres unmarked) [Compound 4] | 0 | 2 (50% of growth compared to untreated control) | 0 | 2 | 2 | 2 | 1 (25% of growth compared to untreated control) | 1 | 0 | 0 | – | – | – | – | – | – | – | – | –
[O-][S+]1CCON=C1c1cccs1 (centres unmarked) [Compound 8] | 0 | 2 (50% of growth compared to untreated control) | 2 (50% of growth compared to untreated control) | 2 | 0 | 2 | 2 (50% of growth compared to untreated control) | 2 | 2 (50% of growth compared to untreated control) | 1 (25% of growth compared to untreated control) | – | – | – | – | – | – | – | – | –
CC(=O)c1ccc(C2=NOCC[S+]2[O-])cc1 (centres unmarked) [Compound 14] | 4 | 4 | 3 (75% of growth compared to untreated control) | 2 | 2 | 2 | 3 (75% of growth compared to untreated control) | 1 | 0 | 2 (50% of growth compared to untreated control) | – | – | – | – | – | – | – | – | Score of fungicidal activity, MUCOR SP ([10]; Test dosage 10 ppm, Table 6A): 1 (25% of growth compared to untreated control)
C[S+]1CCON=C1c1cc(Cl)cc(Cl)c1 (centres unmarked) [Compound 19] | – | – | – | 2 | 0 | 2 | – | 0 | – | – | 0 | 3 (75% of growth compared to untreated control) | 3 (75% of growth compared to untreated control) | 0 | 2 (50% of growth compared to untreated control) | 0 | 2 (50% of growth compared to untreated control) | 0 | –
CCOC(=O)c1ccc(C2=NOCC[S+]2[O-])cc1 (centres unmarked) [Compound 22] | – | – | – | 2 | 2 | 2 | – | 1 | – | – | 2 (50% of growth compared to untreated control) | 4 | 0 | 1 | 3 (75% of growth compared to untreated control) | 4 | 0 | 2 (50% of growth compared to untreated control) | Score of fungicidal activity, C. PUTEANA ([3]; 1 ppm, Table 6B): 3 (75% of growth compared to untreated control)
C[S+]1CCON=C1c1ccc(C(F)(F)F)cc1 (centres unmarked) [Compound 25] | – | – | – | 2 | 2 | 2 | – | 1 | – | – | 1 (25% of growth compared to untreated control) | 3 (75% of growth compared to untreated control) | 0 | 1 | 2 (50% of growth compared to untreated control) | 0 | 0 | 0 | Score of fungicidal activity, C. PUTEANA ([3]; 1 ppm, Table 6B): 2 (50% of growth compared to untreated control); Score of fungicidal activity, MUCOR SP ([10]; 10 ppm, Table 6B): 3 (75% of growth compared to untreated control)
COC(=O)c1cccc(C2=NOCC[S+]2[O-])c1 (centres unmarked) [Compound 26] | – | – | – | 2 | 2 | 2 | – | 0 | – | – | 4 | 4 | 4 | 0 | 3 (75% of growth compared to untreated control) | 4 | 2 (50% of growth compared to untreated control) | 4 | –

From patent US6372297B1, “Wood preservative oxathiazines” (Uniroyal Chemical Company, Inc., priority 1993, dated 2002)
